Like-named read-outs stand apart in the source and are kept apart here.
How the values were obtained:
Plasmopara viticola [1] = experiment: Example 8: greenhouse control of Plasmopara viticola in young grape plants, folpet with potassium phosphonate
[2] = test system: Zymoseptoria tritici Tri-R6 strain; assay type: in vivo; details: for residual efficacy of the contact active ingredients after the washing step: 21 and 28 days after inoculation; for efficacy in the untreated area: contact fungicide as partner of FLUXAPYROXAD
Zymoseptoria tritici = experiment: Example 28: in planta bioassay of penetration and translocation of QoI with folpet, wheat leaf segments; assay type: in vivo; details: example written in the present tense
Venturia inaequalis [3] = experiment: Example 2: greenhouse control of apple scab, phthalimides with cyprodinil and/or fluxapyroxad; assay type: in vivo; details: Table 6; captan or folpet 1200, cyprodinil 300, fluxapyroxad 90 gAI/ha; one spray 1 day before inoculation
Alternaria solani [4] = experiment: Example 5: greenhouse control of Alternaria solani in tomato, phthalimides with azoxystrobin and/or fluxapyroxad; assay type: in vivo
Venturia inaequalis [5] = experiment: Example 13: greenhouse control of apple scab, fluxapyroxad and captan; assay type: in vivo
Plasmopara viticola [6] = experiment: Example 7: greenhouse control of Plasmopara viticola in grape plants, folpet with partners; assay type: in vivo
Alternaria solani [7] = experiment: Example 4: greenhouse control of Alternaria solani in tomato seedlings, phthalimides with DMI and/or fluxapyroxad; assay type: in vivo; details: Table 9
Plasmopara viticola [8] = experiment: Example 22: greenhouse control of Plasmopara viticola in grape, fluxapyroxad and folpet; assay type: in vivo; details: variety Barbera
Erysiphe necator = experiment: Example 9: greenhouse control of Erysiphe necator in grape plants; assay type: in vivo
Procedure: • An experiment was conducted in controlled conditions under a greenhouse to evaluate the fungicidal activity of the mixture comprising (1) phthalimide fungicide (folpet, captan) and (2) demethylation inhibitor fungicide (difenoconazole) or a quinone outside inhibitors (azoxystrobin, pyraclostrobin), toward Erysiphe necator in grape plants, variety Barbera. In addition, the activity of phthalimide with two fungicides (A); demethylation inhibitor fungicide (difenoconazole) or a quinone outside inhibitors (azoxystrobin, pyraclostrobin and dehydrogenase inhibitor fungicide (fluxapyroxad) was also tested. • The experiment was conducted by applying compositions of fluxapyroxad, difenoconazole (Score® 10 WG), azoxystrobin (Ortiva®), pyraclostrobin (Cabrio® EC) and folpet (Folpan 80 WDG®) alone or together. The compositions were diluted with water. Water amount used was equivalent to 800 L/ha. Application was performed in an automatic spraying cabin equipped with 2 flatfan AI11003VS nozzles. • Treatments: • Folpet 1000 gr (A.I.)/ha • Fluxapyroxad 45 gr (A.I.)/ha • Difenoconazole 37.5 gr (A.I.)/ha • Difenoconazole 37.5 gr (A.I.)/ha+folpet 1000 gr (A.I.)/ha • Azoxystrobin 90 gr (A.I.)/ha • Azoxystrobin 90 gr (A.I.)/ha+folpet 1000 gr (A.I.)/ha • Pyraclostrobin 75 gr (A.I.)/ha • Pyraclostrobin 75 gr (A.I.)/ha+folpet 1000 gr (A.I.)/ha • Fluxapyroxad 45 gr (A.I.)/ha+Difenoconazole 37.5 gr (A.I.)/ha • Fluxapyroxad 45 gr (A.I.)/ha+Difenoconazole 37.5 gr (A.I.)/ha+folpet 1000 gr (A.I.)/ha • Azoxystrobin 90 gr (A.I.)/ha+Fluxapyroxad 45 gr (A.I.)/ha • Azoxystrobin 90 gr (A.I.)/ha+Fluxapyroxad 45 gr (A.I.)/ha+folpet 1000 gr (A.I.)/ha • Azoxystrobin 90 gr (A.I.)/ha+Difenoconazole 37.5 gr (A.I.)/ha • Azoxystrobin 90 gr (A.I.)/ha+Difenoconazole 37.5 gr (A.I.)/ha+folpet 1000 gr (A.I.)/ha • Pyraclostrobin 75 gr (A.I.)/ha+Fluxapyroxad 45 gr (A.I.)/ha • Pyraclostrobin 75 gr (A.I.)/ha+Fluxapyroxad 45 gr (A.I.)/ha+folpet 1000 gr (A.I.)/ha • Pyraclostrobin 75 gr (A.I.)/ha+Difenoconazole 37.5 gr (A.I.)/ha • Pyraclostrobin 75 gr (A.I.)/ha+Difenoconazole 37.5 gr (A.I.)/ha+folpet 1000 gr (A.I.)/ha • To test for fungicidal control of Erysiphe necator, the grape plants were sprayed with each of the above treatments. Each of the above treatments was applied from 4 to 10 times according to the disease development, applications occurring 7-14 days after the previous treatment. The treatments were composed of 4 replicates. • Evaluations were performed for the whole duration of the experiment. At each time the incidence and the severity of Erysiphe necator on plants parts was determined.

Sphaerotheca fuliginea = experiment: Example 10: greenhouse control of Sphaerotheca fuliginea on melon plants; assay type: in vivo
Venturia inaequalis [9] = experiment: Example A: greenhouse control of apple scab, phthalimides with DMI and/or fluopyram; assay type: in vivo; details: for % control observed on leaves 26 DAYS after the application / % control observed on leaves 19 DAYS after the application: captan or folpet 1200, difenoconazole 75, tebuconazole 150, fluopyram 150 gAI/ha; for Var % (19/26 DAYS): change of % control from 19 to 26 days
Venturia inaequalis [10] = experiment: Example 1b: greenhouse control of apple scab, reduced rates of phthalimides and difenoconazole; assay type: in vivo; details: for % control observed on leaves 26 DAYS after the application / % control observed on leaves 19 DAYS after the application: captan or folpet 900, difenoconazole 35, tebuconazole 150, fluopyram 150 gAI/ha
Phytophthora infestans = assay type: in vivo; details: tomato
Alternaria solani [11] = experiment: Example 6b: greenhouse control of Alternaria solani in potato plants; assay type: in vivo
Botrytis cinerea = experiment: Example 11: greenhouse control of Botrytis cinerea in strawberry; assay type: in vivo
[12] = 28 days, comparison with FLUXAPYROXAD alone
[13] = Table 10, captan or folpet 1200, azoxystrobin 120, fluxapyroxad 75 gAI/ha, one spray 1 day before inoculation
[14] = captan or folpet 1200, difenoconazole 75, tebuconazole 150, fluxapyroxad 75 gAI/ha, one spray 1 day before inoculation
[15] = Table 10, captan or folpet 900 gAI/ha
[16] = Table 2, one spray 1 day before inoculation, severity based
[17] = Table 4, one spray 1 day before inoculation

Compound	residual efficacy of the contact active ingredients after the washing step [2]	efficacy in the untreated area [2, 12]	difference from the untreated control after the washing step, treated and untreated areas (Zymoseptoria tritici)	% control observed on leaves 26 DAYS after the application (Venturia inaequalis [3])	% control observed on leaves 20 DAYS after the application (Alternaria solani [4]; [13])	% control observed on leaves 20 DAYS after the application (Alternaria solani [7]; [14])	% control observed on leaves 20 DAYS after the application (Alternaria solani [4]; [15])	% control observed on leaves 14 DAYS after the application (Alternaria solani [4]; rate 900 gAI/ha, tomato)	% control observed on leaves 20 DAYS after the application (Alternaria solani [4]; rate 900 gAI/ha, tomato)	Var % (14/20 DAYS) (Alternaria solani [4]; rate 900 gAI/ha, tomato)	% control observed on leaves 14 DAYS after the application (Alternaria solani [4]; rate 1200 gAI/ha, tomato)	% control observed on leaves 20 DAYS after the application (Alternaria solani [4]; rate 1200 gAI/ha, tomato)	Var % (14/20 DAYS) (Alternaria solani [4]; rate 1200 gAI/ha, tomato)	% control observed on leaves 26 DAYS after the application (Venturia inaequalis [9]; [16])	% control observed on leaves 19 DAYS after the application (Venturia inaequalis [9]; Table 3)	% control observed on leaves 26 DAYS after the application (Venturia inaequalis [9]; Table 3)	Var % (19/26 DAYS) (Venturia inaequalis [9]; Table 3)	% control observed on leaves 26 DAYS after the application (Venturia inaequalis [10]; [17])	% control observed on leaves 19 DAYS after the application (Venturia inaequalis [10]; Table 5)	% control observed on leaves 26 DAYS after the application (Venturia inaequalis [10]; Table 5)	also measured
potassium phosphonate	–	–	–	–	–	–	–	–	–	–	–	–	–	–	–	–	–	–	–	–	% control observed on leaves 28 DAYS after the application (Plasmopara viticola [1]; rate 1575 gAI/ha): 31.7%; % control observed on leaves 28 DAYS after the application (Plasmopara viticola [1]; rate 1800 gAI/ha): 40.9%
N#Cc1c(Cl)c(Cl)c(Cl)c(C#N)c1Cl [CHLOROTHALONIL, chlorothalonil]	very low	significantly less than when FLUXAPYROXAD is used alone or with FOLPET	no significant difference from the untreated control	–	–	–	–	–	–	–	–	–	–	–	–	–	–	–	–	–	–
Cn1cc(C(=O)Nc2ccccc2-c2cc(F)c(F)c(F)c2)c(C(F)F)n1 [FLUXAPIROXAD, fluxapyroxad]	–	–	–	75%	66.6%	60.4%	–	–	–	–	–	–	–	–	–	–	–	–	–	–	% control observed on leaves 14 DAYS after the application (Alternaria solani [4]; rate 75 gAI/ha, tomato): 75.3%; % control observed on leaves 20 DAYS after the application (Alternaria solani [4]; rate 75 gAI/ha, tomato): 66.6%; Var % (14/20 DAYS) (Alternaria solani [4]; rate 75 gAI/ha, tomato): −11.6%; efficacy in the treated area [2, 12]: better protection than when used with SULPHUR or CHLOROTHALONIL; % control observed on leaves 26 DAYS after the application (Venturia inaequalis [5]; rate 45 gAI/ha): 38.6%; % control observed on leaves 26 DAYS after the application (Venturia inaequalis [5]; rate 55 gAI/ha): 61.7%; % control observed on leaves 26 DAYS after the application (Venturia inaequalis [5]; rate 75 gAI/ha): 78.4%; % control observed on leaves 26 DAYS after the application (Venturia inaequalis [5]; rate 90 gAI/ha): 86.6%; % control observed on leaves 21 DAYS after the application (Plasmopara viticola [6]; rate 45 gr (A.I.)/ha): 35.1%; effect against Plasmopara viticola (Plasmopara viticola [8]): limited effect; % control observed on leaves 21 DAYS after the application (Erysiphe necator; rate 45 gr (A.I.)/ha): 68.7%; % control observed on leaves 21 DAYS after the application (Sphaerotheca fuliginea; rate 75 gr (A.I.)/ha): 72.5%
O=C1C2CC=CCC2C(=O)N1SC(Cl)(Cl)Cl (stereo not shown) [CAPTAN, captan]	–	–	–	68.3%	65.9%	64.3%	54.5%	64.9%	54.5%	−16.0%	76%	65.9%	−13.3%	75.9%	82.6%	75.9%	−8.1%	77%	83.9%	77%	% control observed on leaves 26 DAYS after the application (Venturia inaequalis [5]; rate 600 gAI/ha): 50.4%; % control observed on leaves 26 DAYS after the application (Venturia inaequalis [5]; rate 900 gAI/ha): 68.1%; % control observed on leaves 26 DAYS after the application (Venturia inaequalis [5]; rate 1200 gAI/ha): 78.5%; % control observed on leaves 26 DAYS after the application (Venturia inaequalis [5]; rate 1500 gAI/ha): 89.1%; Var % (19/26 DAYS) (Venturia inaequalis [10]; Table 5, change of % control from 19 to 26 days): −8.2%; % control observed on leaves 14 DAYS after the application (Phytophthora infestans; rate 900 gr (A.I.)/ha): 57.0%; % control observed on leaves 14 DAYS after the application (Phytophthora infestans; rate 1200 gr (A.I.)/ha): 72.4%; % control observed on leaves 21 DAYS after the application (Alternaria solani [11]; rate 900 gr (A.I.)/ha): 54.1%; % control observed on leaves 21 DAYS after the application (Alternaria solani [11]; rate 1200 gr (A.I.)/ha): 64.8%; % control observed on leaves 20 DAYS after the application (Alternaria solani [7]; captan or folpet 900 gAI/ha): 51.3%
O=C1c2ccccc2C(=O)N1SC(Cl)(Cl)Cl [FOLPET, folpet]	very low	–	no significant difference from the untreated control	64.9%	65.3%	63.4%	56.7%	67.8%	56.7%	−16.4%	79.7%	65.3%	18.1%	72.3%	80.6%	72.3%	−10.3%	73.4%	82.1%	73.4%	% control observed on leaves 21 DAYS after the application (Botrytis cinerea; rate 900 gr (A.I.)/ha): 33.3%; % control observed on leaves 21 DAYS after the application (Botrytis cinerea; rate 1200 gr (A.I.)/ha): 40.8%; % control observed on leaves 14 DAYS after the application (Phytophthora infestans; rate 900 gr (A.I.)/ha): 58.3%; % control observed on leaves 14 DAYS after the application (Phytophthora infestans; rate 1200 gr (A.I.)/ha): 70.3%; % control observed on leaves 21 DAYS after the application (Plasmopara viticola [6]; rate 1000 gr (A.I.)/ha): 60.3%; % control observed on leaves 28 DAYS after the application (Plasmopara viticola [1]; rate 1050 gAI/ha): 87.7%; % control observed on leaves 28 DAYS after the application (Plasmopara viticola [1]; rate 1200 gAI/ha): 96.9%; % control observed on leaves 21 DAYS after the application (Alternaria solani [11]; rate 900 gr (A.I.)/ha): 53.2%; % control observed on leaves 21 DAYS after the application (Alternaria solani [11]; rate 1200 gr (A.I.)/ha): 63.6%; % control observed on leaves 20 DAYS after the application (Alternaria solani [7]; captan or folpet 900 gAI/ha): 50.5%; % control observed on leaves 21 DAYS after the application (Erysiphe necator; rate 1000 gr (A.I.)/ha): 35.2%; % control observed on leaves 21 DAYS after the application (Sphaerotheca fuliginea; rate 900 gr (A.I.)/ha): 45.3%; % control observed on leaves 21 DAYS after the application (Sphaerotheca fuliginea; rate 1200 gr (A.I.)/ha): 54.0%
S1SSSSSSS1 [SULPHUR]	very low	significantly less than when FLUXAPYROXAD is used alone or with FOLPET	no significant difference from the untreated control	–	–	–	–	–	–	–	–	–	–	–	–	–	–	–	–	–	–
